Assay results as given in patent US20220307066A1, “AN ENZYMATIC ASSAY TO MEASURE LONG-TERM ADHERENCE TO PRE EXPOSURE PROPHYLAXIS AND ANTIRETROVIRAL THERAPY” (University of Washington, priority 2019, published 2022).
“And” between values parts separate entries of the source, which are not always exact repeats. Equal entries are not always repeated. Where two headings read alike, the source gives them in different places.

Assays:
[1] = molecular target: T1, HIV-1 RT (Human immunodeficiency virus type 1 group M subtype B, UniProt P04585); assay: RESTRICT assay with TFV-DP spiked in diluted whole blood (0.25% final); assay type: biochemical; details: 0.25% blood, 100 nM dNTP, N = 4
T1 construct: Recombinant reverse transcriptase protein obtained through the NIH AIDS Reagent Program; purchased NIH AIDS Reagent Program, Division of AIDS, NIAID, NIH
Description: [sequence] assays were conducted with TFV-DP (166403-66-3, BOC Sciences Inc.) using 5 μL of DNA template, 5 μL of primer, 20 μL of dNTPs solution, 5 μL of TFV-DP, and 5 μL of HIV-1 RT. […] Serial dilutions of TFV-DP in buffer spanning a concentration range of 1-10,000 nM were prepared to span two orders of magnitude above and below the clinically relevant range for adherence measurement as described in pharmacokinetic studies. […] [sequence] assay optimization experiments were completed at 100, 300, 1560, and 6250 nM dNTP concentration.
Fluorescence from [sequence] assay data was normalized to allow comparison of data points gathered at different dNTP concentrations as follows,
HIV-negative, human whole blood (BioIVT, Westbury, N.Y.) was diluted in nuclease-free water (3098, Sigma) to lyse RBCs and reduce unwanted inhibition of RT activity by blood components such as immunoglobulins. Blood was mixed with the water by vortexing and incubating for 5 minutes to lyse RBCs.
Five μL of TFV-DP were spiked in 2% blood to 35 μL of master mix so that the final concentration of blood in the [sequence] assay was 0.25%. […]

[2] = molecular target: T1, HIV-1 RT; assay: RESTRICT assay with TFV-DP in buffer at different dNTP concentrations; assay type: biochemical; details: 100, 300, 1560, 6250 nM dNTP, fixed 50 to 1 dNTP to template
Description: Optimal assay conditions were determined for RT activity in order to minimize assay time and reagent concentration, using RT enzyme obtained through the NIH AIDS Reagent Program, Division of AIDS, NIAID, NIH (Le Grice, S. F. J.; et al., Purification and Characterization of Human Immunodeficiency Virus Type 1 Reverse Transcriptase. In Methods in Enzymology; DNA Replication; Academic Press, 1995, 262, 130-144). Reactions were carried out in a buffer containing: 60 mM Tris (77-86-1, Sigma), 30 mM KCl (7447-40-7, Sigma), 8 mM MgCl2 (7786-30-3, Sigma), and 10 mM dithiothreitol (20-265, Sigma) buffered to pH 8.0 using HCl (7647-01-0, Acros Organics).
The DNA template has a 20 nt primer binding site complementary to the M13 phage DNA primer AGAGTTTGATCCTGGCTCAG (Catalog, Integrated DNA Technologies, Coralville, Iowa), set forth herein as SEQ ID NO:1, followed by TTCA repeats with a total template length of 200 nt. The DNA template was designed using NUPACK software (Zadeh, J. N. et al., NUPACK: Analysis and Design of Nucleic Acid Systems. J. Comput. Chem. 2011, 32 (1), 170-173) to preferentially include T bases because TFV-DP is a deoxyadenosine triphosphate (dATP) analog and thus will bind to T's in the DNA template. […]
Fluorescence from RESTRICT assay data was normalized to allow comparison of data points gathered at different dNTP concentrations as follows, […]

[3] = molecular target: T1, HIV-1 RT; assay: RESTRICT assay on whole blood of study participants (clinical samples); assay type: biochemical
Excerpt: The RESTRICT assay detects TFV-DP drug concentrations based on its mechanism of action on HIV RT. See examples above and Olanrewaju AO, et al. An enzymatic assay for rapid measurement of antiretroviral drug levels. ACS Sens. April 2020. TFV-DP causes chain termination when HIV RT synthesizes viral double stranded DNA (dsDNA). The RESTRICT assay provides all the reagents required for dsDNA synthesis—a DNA template, primers, nucleotides, recombinant HIV RT enzyme, and appropriate buffers—and measures TFV-DP concentrations in a patient's blood using intercalating fluorescence dyes based on the extent of DNA synthesis. At low TFV-DP concentrations, full-length dsDNA is formed and binds to many intercalating dye molecules resulting in high fluorescence. Meanwhile, at high TFV-DP concentrations, DNA chain termination occurs resulting in dsDNA fragments that bind to few intercalating dye molecules resulting in low fluorescence. Thus, the fluorescence readout from the RESTRICT assay was used to estimate TFV-DP concentration in a patient's blood. […]
The RESTRICT assay was completed in 5 simple steps. […] Then 5 μL of 100 nM of HIV-1 RT was added to initiate the assay which was incubated at 37° C. for 30 min in a microplate reader (SpectraMax iD3, Molecular Devices). […]

[4] = in vivo
[5] = cited from earlier work

| Structure (SMILES) | Normalized fluorescence (%) ([1]; TFV-DP 85.4 nM (16.9 fmol/10^6 RBCs, low adherence, 1 dose per week)) | Normalized fluorescence (%) ([1]; TFV-DP 768 nM (152.3 fmol/10^6 RBCs, high adherence, 7 doses per week)) | IC50 of inhibition curve as dNTP concentration increases [2] | Median fluorescence, RESTRICT assay ([3]; samples containing <700 fmol/punch TFV-DP (N=14)) [%] | Median fluorescence, RESTRICT assay ([3]; samples containing ≥700 fmol/punch TFV-DP (N=4)) [%] | clinical range for TFV-DP adherence, concentration in whole blood [4] [nM] | Median TFV-DP concentrations in RBCs ([5]; depending on adherence, LC/MS) | accumulation in red blood cells (RBCs) ([5]; in vivo) [fold] | half-life ([5]; red blood cells) [h] | half-life ([5]; plasma) | detectable for up to ([5]; urine) [days] |
| --- | --- | --- | --- | --- | --- | --- | --- | --- | --- | --- | --- |
| CC(Cn1cnc2c(N)ncnc21)OCP(=O)(O)OP(=O)(O)OP(=O)(O)O (stereo in doubt) [TFV-DP, tenofovir diphosphate] | 89.0 | 57.5 | shift right, towards higher IC50 values | 51.3 | 31.9 | 75 to 850 | 15-170 fmol/10^6 RBCs | 25 | 408 | – | – |
| C[C@H](Cn1cnc2c(N)ncnc21)OCP(=O)(O)O [TFV, tenofovir] | – | – | – | – | – | – | – | – | – | 15 h and 17 h | ≤ 7 |
